Experiments:
[1] = tested on: CCRF-CEM ARAC-8C cells (Gem-resistant human acute lymphoblastic leukemia); experiment: Therapeutic effect under ionizing radiation: cell viability by trypan blue cell count; type: cell-based
Procedure: Just before the experiment, the cells (CCRF-CEM ARAC-8C) were dispersed in PBS and transferred to a 48-well microplate (TPP cell culture microplates purchased from Thermo Fisher Scientific, France) (40,000 cells in 80 μL/well). Gem (20 μL, final concentration 0.1 μM) or PBS (20 μL) and cis-GdAzo compound (100 μL, final concentration 0 μM, 250 μM, 500 μM or 850 μM) were added just prior to gamma irradiation of the medium (2 Gy). The medium was maintained in the dark and in a humid atmosphere at 37° C. with 5% CO2 for 1 h. Next, culture medium (600 μL) was added to each well and the cells were washed by three centrifugation cycles (300 G, 5 min, 800 μL of culture medium used for each wash). The cells were finally dispersed in culture medium (600 μL) containing or not containing Gem (final concentration 0 μM or 0.1 μM) and were maintained in a humid atmosphere at 37° C. with 5% CO2 for 4 days. The number of live cells was determined by cell count in the presence of 1:1 (v/v) trypan blue (triplicate). The experiment was repeated three times independently. Cell viability was expressed as the ratio of the number of living cells after treatment to the number of living cells without any treatment (without irradiation, in the absence of Gem and cis-GdAzo). A similar procedure was used for the control experiment without irradiation except that the 48-well microplate was not irradiated with gamma rays. A similar procedure was used for the control experiment with Dotarem® (FIG. 2f) except that Dotarem® was used instead of cis-GdAzo. The cis-GdAzo compound was obtained by UV irradiation (365 nm, 0.817 mW·cm−2, 30 min) of the trans-GdAzo compound (105 μL, 500 μM, 1 mM or 1.7 mM, cis-GdAzo>85%) in a 96-well microplate.

[2] = Quantification of ionizing-radiation-induced isomerization (molecular activation) by HPLC; type: physicochemical
Procedure: Gamma ray irradiation. Gamma irradiation was performed with a Cesium-137 source (IBL 637) providing 662 keV photons at a dose rate of approximately 1 Gy/min. Radiation doses are expressed in Gray ([…]).
Gd-containing compounds (GdAzo or GdFAzo) and control compounds (Azo or FAzo) (50 μM, 200 μL, PBS) were introduced into two 96-well microplates (10 wells for each compound). Both microplates were first irradiated under UV light (365 nm, 0.817 mW·cm^−2, 5 min). One microplate (plate 1) was then kept in the dark and used as a non-irradiated control while the second (plate 2) was irradiated with an increment of ionizing radiation doses (2 Gy, 3 Gy, 5 Gy and 10 Gy). After each irradiation, absorbance spectrophotometric and HPLC injection (method C) analyses were performed on the non-irradiated (plate 1) and irradiated (plate 2) compounds. A 26 min time lag between UV irradiation of plates 1 and 2 was used to allow analysis of the unirradiated control compounds (plate 1) at the same time as the ionizing irradiated compounds (plate 2) after UV irradiation. […] The absorbance spectra were plotted by the mean of triplicates. The relative amount of each isomer was obtained by HPLC (detection at the isosbestic point wavelength under elution conditions) and the molecular activation (%) was determined by the difference in the proportion of trans isomer in the medium (3 independent experiments).

[3] = Thermal relaxation of the compound; type: physicochemical
Cells (PANC-1) = experiment: Confocal microscopy in the presence of ionizing radiation: cell permeabilization (propidium iodide); type: cell-based, human
Procedure: Cells (PANC-1) were transferred to an imaging plate (Lab-Tek chamber slide system, glass, 8-well purchased from Thermo Fisher Scientific, France) 24 h before the start of the experiment, and were maintained in culture medium (10,000 cells in 200 μL/well) in a humid atmosphere at 37° C. with 5% CO2. Just before the experiment, the cell medium was replaced with PBS (100 μL) and IP (5 μL, final concentration 1 μM) was added to the medium. 15 min after the addition of PI, cis-GdAzo (100 μL, final concentration 0 μM, 250 μM, 500 μM or 850 μM) was introduced into the cell medium. A first series of images was acquired at this stage, and then the imaging plate was irradiated (gamma rays, 2 Gy). The imaging plate was then kept in the dark at 37° C. (plate warmer) and images were acquired every 5 min for 30 min and then every 10 min for 90 min. A similar procedure was used for the control experiment without irradiation except that the imaging plate was not irradiated with gamma rays. The cis-GdAzo compound was obtained by UV irradiation (365 nm, 0.817 mW·cm^−2, 30 min) of the trans-GdAzo compound (105 μL, 500 μM, 1 mM or 1.7 mM, cis-GdAzo>85%) in a 96-well microplate. […] The instrument was equipped with a laser diode at 561 nm as excitation wavelength. The red fluorescence emission was collected over a bandwidth of 598-672 nm and the transmission images were obtained with a white diode. The pinhole was set at 50 μm and the magnification lens at 1.2. The images were recorded by an e-Volve s-CMOS camera (Photometrics). Four images were recorded per well and two wells were used for each concentration of cis-GdAzo. Analysis of the 16-bit digital images was performed using ImageJ software (version 1.50i with the Adjustable Watershed plugin). The number of cells in the images acquired before irradiation was determined manually and the number of fluorescent cells in the images acquired before and after irradiation was calculated automatically using a script coded on ImageJ. Cell permeabilization was determined by the difference in the proportion of fluorescent cells before and 30 min after gamma irradiation (3 independent experiments).

CNC[C@H](O)[C@@H](O)[C@H](O)[C@H](O)CO.O=C([O-])CN1CCN(CC(=O)[O-])CCN(CC(=O)O)CCN(CC(=O)[O-])CC1.[Gd+3] [Dotarem®, reference compound]
therapeutic effect under ionizing radiation ([1]; gamma irradiation (2 Gy), with or without Gem (0.1 μM), FIG. 2f): no therapeutic effect

Gadolinium 2,6-difluoro-4-(N-(1,4,7,10-tetraazacyclododecane-1,4,7-triacetic acid-10-glutaryl)-ethoxyamine)-2′,6′-difluoro-4′-butoxyazobenzene [GdFAzo]
activation of the compound compared to GdAzo ([2]; in vitro experimental conditions, FIG. 1c): relatively low | activation by ionizing radiation ([2]; ionizing radiation (X-rays, gamma rays, electrons), FIGS. 1a-f): can also be activated | thermal relaxation [3]: slow enough

Gadolinium 4-(N-(1,4,7,10-tetraazacyclododecane-1,4,7-triacetic acid-10-glutaryl)-ethoxyamine)-4′-butoxyazobenzene [GdAzo]
cell permeabilization (Cells (PANC-1); 250 μM, gamma rays at 2 Gy, 30 min after irradiation): 6.9% | cell permeabilization (Cells (PANC-1); 250 μM, without irradiation): 1.2% | cell permeabilization (Cells (PANC-1); 500 μM, gamma rays at 2 Gy, 30 min after irradiation): 8.2% | cell permeabilization (Cells (PANC-1); 500 μM, without irradiation): 2.8% | cell permeabilization (Cells (PANC-1); 850 μM, gamma rays at 2 Gy, 30 min after irradiation): 12.4% | cell permeabilization (Cells (PANC-1); 850 μM, without irradiation): 7.5% | cell viability 4 days after treatment ([1]; 250 μM, absence of gemcitabine, gamma radiation at 2 Gy): 23% | cell viability 4 days after treatment ([1]; 250 μM, absence of gemcitabine, without irradiation): 79% | cell viability 4 days after treatment ([1]; 250 μM, presence of gemcitabine (0.1 μM), gamma radiation at 2 Gy): 15% | cell viability 4 days after treatment ([1]; 250 μM, presence of gemcitabine (0.1 μM), without irradiation): 49% | cell viability 4 days after treatment ([1]; 500 μM, absence of gemcitabine, gamma radiation at 2 Gy): 18% | cell viability 4 days after treatment ([1]; 500 μM, absence of gemcitabine, without irradiation): 42% | cell viability 4 days after treatment ([1]; 500 μM, presence of gemcitabine (0.1 μM), gamma radiation at 2 Gy): 9.1% | cell viability 4 days after treatment ([1]; 500 μM, presence of gemcitabine (0.1 μM), without irradiation): 30% | cell viability 4 days after treatment ([1]; 850 μM, absence of gemcitabine, gamma radiation at 2 Gy): 3.0% | cell viability 4 days after treatment ([1]; 850 μM, absence of gemcitabine, without irradiation): 27% | cell viability 4 days after treatment ([1]; 850 μM, presence of gemcitabine (0.1 μM), gamma radiation at 2 Gy): 1.2% | cell viability 4 days after treatment ([1]; 850 μM, presence of gemcitabine (0.1 μM), without irradiation): 16%

From US12414991B2, “Azobenzene derivatives, process for their preparation and their use for therapeutic treatment associated with ionizing radiations” (CENTRE NATIONAL DE LA RECHERCHE SCIENTIFIQUE, priority 2019, dated 2025)
